The values below come from article PMC12974487, “Inhibition of FicD-mediated AMPylation and deAMPylation by isoprenoid diphosphates” (Proceedings of the National Academy of Sciences of the …, 2026).

Test [1] deals with T1, FicD^R374C (Homo sapiens, UniProt Q9BVA6, R374C).
T1 construct: Wild-type FicD (residues 105-458) and all mutants were expressed as N-terminal 6xHis-Sumo fusions; 6xHis-Sumo (N, cleaved yes); made in house; host or cells: Rosetta(DE3) E. coli
T1 sequence (Q9BVA6 105-458 R374C): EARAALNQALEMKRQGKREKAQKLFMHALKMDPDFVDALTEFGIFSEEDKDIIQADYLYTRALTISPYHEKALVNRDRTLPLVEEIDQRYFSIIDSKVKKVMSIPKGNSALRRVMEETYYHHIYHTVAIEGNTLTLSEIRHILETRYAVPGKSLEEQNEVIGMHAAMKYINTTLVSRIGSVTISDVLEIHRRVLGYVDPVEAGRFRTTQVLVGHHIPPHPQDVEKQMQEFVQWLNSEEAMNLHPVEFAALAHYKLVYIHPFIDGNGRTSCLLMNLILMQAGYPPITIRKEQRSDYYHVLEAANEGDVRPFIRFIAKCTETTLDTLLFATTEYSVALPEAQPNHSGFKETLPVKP
Description: AMPylation of Δ26hBiP^T229A by pathogenic variant FicD^R374C. It is filed as biochemical. To be noted: indicated concentrations of FPP. From the text:
(§1) Fig. 5. Crystal structure of FPP inhibitor bound to FicD active site. […] FPP (cyan stick) and Mg^2+ (cyan sphere) in the pocket of FicD shown as APBS electrostatic surface with positive areas in blue, negative in red, and neutral in white (contour level: ±5 kBT/e) (Right). […] (C–E) AMPylation assays of Δ26hBiP^T229A in the presence of the indicated concentration of FPP using the pathogenic human variants (C) FicD^R371S, (D) FicD^R374H and (E) FicD^R374C. AMPylated BiP and Fic were quantified by immunodetection, and total BiP was quantified by CBB. […]
(§2) Isothermal Titration Calorimetry
(§3) Proteins were dialyzed against 25mM HEPES pH 7.4/100mM KCl/10% glycerol prior to titration. […]
(§4) MgCl2 was added to […]
(§5) proteins to a final concentration of 4mM. ITC experiments were performed in a Micro-Cal PEAQ-ITC (Malvern Panalytical, Worcestershire, UK) calorimeter with a stirred 206.2 μL reaction cell held at 20 °C. 250μM FPP was titrated into 25uM Δ104hFicL258D with 750rpm stirring. The first injection was 0.5 μL, followed by twenty 1.9 μL injections. […]
(§6) Thermogram and binding figures were plotted in
(§7) For AMPylation assays with FicD and BiP, Δ104FicDWT and Δ26hBiPT229A were combined at a ratio of 1:80 in buffer containing 25mM HEPES pH 7.4, 100mM KCl, 5mM MgCl2, 500μM ATP, 1mM DTT, and small molecule where indicated. Assays with Δ104FicDWT were incubated for 1 hour. […]

In test [2] the target is T2, FicD^R374H (Homo sapiens, UniProt Q9BVA6, R374H).
T2 construct: Wild-type FicD (residues 105-458) and all mutants were expressed as N-terminal 6xHis-Sumo fusions; 6xHis-Sumo (N, cleaved yes); made in house; host or cells: Rosetta(DE3) E. coli
T2 sequence (Q9BVA6 105-458 R374H): T1 sequence (Q9BVA6 105-458 R374C) with C270H
Description: DSF with FicD^R374H variant. It is filed as binding.

In test [3] the target is T1, FicD^R374C. Description: DSF with FicD^R374C variant. It is filed as binding.
Test [4] has as its target T3, FicD^R371S (Homo sapiens, UniProt Q9BVA6, R371S).
T3 construct: Wild-type FicD (residues 105-458) and all mutants were expressed as N-terminal 6xHis-Sumo fusions; 6xHis-Sumo (N, cleaved yes); made in house; host or cells: Rosetta(DE3) E. coli
T3 sequence (Q9BVA6 105-458 R371S): T1 sequence (Q9BVA6 105-458 R374C) with R267S, C270R
Description: AMPylation of Δ26hBiP^T229A by pathogenic variant FicD^R371S. It is filed as biochemical. Particulars: indicated concentrations of FPP.
From the text: as §1, §2, §3, §4, §5, §6, §7

Positions count from the first letter of the chain named. “Also recorded” adds a separate entry of the source.

`CC(C)=CCC/C(C)=C/CC/C(C)=C/COP(=O)(O)OP(=O)(O)O` [FPP, farnesyl-pyrophosphate]: in test [1], the “FPP inhibition of FicD^R374C mediated AMPylation” value was “inhibition; also recorded: inhibited”. The “binding to R374H variant by DSF (melting curve shift)” value is reported as “caused shifts in the melting curves” in test [2] (absence of Mg2+) and “enhanced the binding” in test [2] (addition of Mg2+). Besides, the “binding to R374C variant by DSF (melting curve shift)” value is “caused shifts in the melting curves” in test [3] (absence of Mg2+) and “enhanced the binding” in test [3] (addition of Mg2+). For the same molecule, the “FPP inhibition of FicD^R371S AMPylation activity” value in test [4] is “total loss of FPP inhibition”.
